Test results reported in article PMC5392048 (Journal of Central Nervous System Disease, 2017).

Tests used:
[1] = Unbound plasma concentration-time profile of the inhibitors in rats; type: in vivo, rat
[2] = tested on: P-gp; details: read-out: inhibitory concentration (Ki) for P-gp; cited from earlier work
[3] = tested on: OATP1B1; details: read-out: Ki for the uptake transporters (OATP1B1); cited from earlier work

SMILES | time unbound plasma level maintained above Ki (Iu/Ki > 1) ([1]; elacridar 5 mg/kg iv, rat plasma, Ki for P-gp) | unbound peak plasma concentration relative to Ki for P-gp ([1]; elacridar 5 mg/kg iv, rat plasma, peak concentration) [fold] | Ki [2] [nM] | maximum unbound concentration in plasma ([1]; rifampicin 30 mg/kg oral, rat) [µM] | Ki [3] [nM]
COc1cc2c(cc1OC)CN(CCc1ccc(NC(=O)c3cccc4c(=O)c5cccc(OC)c5[nH]c34)cc1)CC2 [elacridar] | ~ 15 hours | […] | […] | – | –
CO[C@H]1/C=C/O[C@@]2(C)Oc3c(C)c(O)c4c(O)c(c(/C=N/N5CCN(C)CC5)c(O)c4c3C2=O)NC(=O)/C(C)=C\C=C\[C@H](C)[C@H](O)[C@@H](C)[C@@H](O)[C@@H](C)[C@H](OC(C)=O)[C@@H]1C [rifampicin] | – | – | – | 1.8 | 1100
